Laboratory results from publication PMC2777267, “Crystal Structures of Wzb of Escherichia coli and CpsB of Streptococcus pneumoniae, Representatives of Two Families of Tyrosine Phosphatases that Regulate Capsule Assembly” (Journal of Molecular Biology, 2009).

Columns and labels:
[1] = biological target: T1, Cps4B (Streptococcus pneumoniae, UniProt Q9AHD4); experiment: absorbance at […] nm; format: biochemical; parameters: gene cpsB; recombinant, produced as described earlier; PHP-fold metal-dependent phosphatase with three active-site metals; 1 molecule per asymmetric unit; conditions: 25 mM Tris-Cl pH 8.0, 50 mM NaCl, 2.5 mM pNPP, room temperature; 0.5 mM Cu2+, Co2+ or Mn2+ added
T1 sequence (Q9AHD4 whole entry, looked up): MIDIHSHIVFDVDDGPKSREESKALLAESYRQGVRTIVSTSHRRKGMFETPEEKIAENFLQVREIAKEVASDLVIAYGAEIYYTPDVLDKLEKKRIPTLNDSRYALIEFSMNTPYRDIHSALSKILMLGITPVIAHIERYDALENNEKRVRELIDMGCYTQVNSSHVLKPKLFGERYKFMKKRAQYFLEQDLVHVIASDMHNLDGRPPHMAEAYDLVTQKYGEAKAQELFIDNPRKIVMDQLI

[2] = biological target: T1, Cps4B; parameters: gene cpsB; conditions: active site, bound to three metals, Arg139 and Arg206; soak up to 50 mM phosphate

Row | SMILES | absorbance at 405 nm [1] | X-ray crystal structure, 2.2 A, phosphate soak [2]
1 | O=[N+]([O-])c1ccc(OP(=O)(O)O)cc1 [para-nitrophenylphosphate] | it is a relatively poor catalyst with artificial substrate para-nitrophenylphosphate (pNPP) | 
2 | O=P(O)(O)O [phosphate] |  | The phosphate is tightly bound to the active site by a multitude of interactions
